Assay results as given in ChEMBL document CHEMBL3745644, “The synthesis and BK channel-opening activity of N-acylaminoalkyloxime derivatives of dehydroabietic acid” (Bioorg Med Chem Lett, 2016).

Biological target: Calcium-activated potassium channel subunit alpha-1 (Homo sapiens) (UniProt Q12791)
Assay: Induction of step pulse-induced human BKalpha channel opening activity expressed in CHO-K1 cells at 30 uM by population patch clamp method relative to control
Type: cell-based

Calcium-activated potassium channel subunit alpha-1 (Homo sapiens), sequence (Q12791 whole entry): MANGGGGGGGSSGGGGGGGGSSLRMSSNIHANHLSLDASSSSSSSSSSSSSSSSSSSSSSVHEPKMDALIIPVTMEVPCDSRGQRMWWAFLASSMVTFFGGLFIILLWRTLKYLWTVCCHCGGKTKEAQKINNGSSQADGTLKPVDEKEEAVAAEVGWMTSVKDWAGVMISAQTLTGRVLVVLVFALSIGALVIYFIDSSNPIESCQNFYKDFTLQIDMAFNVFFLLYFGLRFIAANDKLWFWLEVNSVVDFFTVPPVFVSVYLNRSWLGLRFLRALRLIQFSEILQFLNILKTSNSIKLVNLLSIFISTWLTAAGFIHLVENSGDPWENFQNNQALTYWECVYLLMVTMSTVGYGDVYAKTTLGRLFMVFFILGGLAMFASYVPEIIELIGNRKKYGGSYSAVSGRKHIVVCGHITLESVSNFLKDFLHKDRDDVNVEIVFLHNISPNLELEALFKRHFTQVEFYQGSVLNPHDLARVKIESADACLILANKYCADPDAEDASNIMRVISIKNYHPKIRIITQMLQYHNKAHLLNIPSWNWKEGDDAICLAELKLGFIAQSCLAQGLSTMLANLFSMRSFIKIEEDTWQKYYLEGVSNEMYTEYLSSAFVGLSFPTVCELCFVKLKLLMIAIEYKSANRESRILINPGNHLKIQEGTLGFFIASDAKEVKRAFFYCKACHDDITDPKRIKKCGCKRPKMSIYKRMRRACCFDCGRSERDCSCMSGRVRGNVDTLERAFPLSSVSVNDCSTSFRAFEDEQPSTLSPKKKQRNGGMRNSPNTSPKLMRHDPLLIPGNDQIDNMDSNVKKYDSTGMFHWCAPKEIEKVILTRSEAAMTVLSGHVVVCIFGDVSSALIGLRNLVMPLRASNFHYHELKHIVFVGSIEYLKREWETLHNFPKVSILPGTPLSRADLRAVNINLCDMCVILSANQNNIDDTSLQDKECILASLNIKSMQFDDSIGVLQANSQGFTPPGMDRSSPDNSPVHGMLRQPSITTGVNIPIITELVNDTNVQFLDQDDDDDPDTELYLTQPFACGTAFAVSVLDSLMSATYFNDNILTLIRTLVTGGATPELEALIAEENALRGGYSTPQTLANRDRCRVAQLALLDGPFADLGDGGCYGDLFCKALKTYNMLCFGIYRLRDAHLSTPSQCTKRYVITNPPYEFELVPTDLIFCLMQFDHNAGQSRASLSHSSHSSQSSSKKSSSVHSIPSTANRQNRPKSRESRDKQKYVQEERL

Going from `CC(C)c1cc2c(cc1Br)[C@@]1(C)CCC[C@@](C)(C(=O)O)[C@@H]1C/C2=N\OCCNC(=O)c1cccc(C(F)(F)F)c1` to `CC(C)c1cc2c(cc1Br)[C@@]1(C)CCC[C@@](C)(C(=O)O)[C@@H]1C/C2=N\OCCNC(=O)c1ccc(C(F)(F)F)cc1`, the Activity falls from 113% to 107%.

First: CC(C)c1cc2c(cc1Br)[C@@]1(C)CCC[C@@](C)(C(=O)O)[C@@H]1C/C2=N\OCCNC(=O)c1ccco1
Second: CC(C)c1cc2c(cc1Br)[C@@]1(C)CCC[C@@](C)(C(=O)O)[C@@H]1C/C2=N\OCCNC(=O)c1ccc[nH]1
The Activity of the first is higher: 151% for the first, 124% for the second.

First: CCCCCC(=O)NCCO/N=C1\C[C@H]2[C@](C)(C(=O)O)CCC[C@]2(C)c2cc(Br)c(C(C)C)cc21
Second: CC(=O)NCCO/N=C1\C[C@H]2[C@](C)(C(=O)O)CCC[C@]2(C)c2cc(Br)c(C(C)C)cc21
The Activity of the first is higher: 146% for the first, 140% for the second.

Going from `CC(C)c1cc2c(cc1Br)[C@@]1(C)CCC[C@@](C)(C(=O)O)[C@@H]1C/C2=N\OCCNC(=O)C1CC1` to `CC(C)C(=O)NCCO/N=C1\C[C@H]2[C@](C)(C(=O)O)CCC[C@]2(C)c2cc(Br)c(C(C)C)cc21`, the Activity falls from 149% to 142%.

Going from `CC(C)c1cc2c(cc1Br)[C@@]1(C)CCC[C@@](C)(C(=O)O)[C@@H]1C/C2=N\OCCNC(=O)c1ccc(Cl)s1` to `CC(C)c1cc2c(cc1Br)[C@@]1(C)CCC[C@@](C)(C(=O)O)[C@@H]1C/C2=N\OCCNC(=O)c1ccc(Br)s1`, the Activity rises from 103% to 107%.

First: COc1cccc(C(=O)NCCO/N=C2\C[C@H]3[C@](C)(C(=O)O)CCC[C@]3(C)c3cc(Br)c(C(C)C)cc32)c1
Second: COc1ccc(C(=O)NCCO/N=C2\C[C@H]3[C@](C)(C(=O)O)CCC[C@]3(C)c3cc(Br)c(C(C)C)cc32)cc1
The Activity of the first is lower: 90.4% for the first, 102% for the second.

Going from `CCc1ccc(C(=O)NCCO/N=C2\C[C@H]3[C@](C)(C(=O)O)CCC[C@]3(C)c3cc(Br)c(C(C)C)cc32)cc1` to `CC(C)c1cc2c(cc1Br)[C@@]1(C)CCC[C@@](C)(C(=O)O)[C@@H]1C/C2=N\OCCNC(=O)c1ccccc1`, the Activity rises from 68% to 121%.

First: CC(C)c1cc2c(cc1Br)[C@@]1(C)CCC[C@@](C)(C(=O)O)[C@@H]1C/C2=N\OCCCNC(=O)c1cccs1
Second: CC(C)c1cc2c(cc1Br)[C@@]1(C)CCC[C@@](C)(C(=O)O)[C@@H]1C/C2=N\OCCNC(=O)c1cccs1
The Activity of the first is lower: 136% for the first, 267% for the second.

Compared with `CC(C)c1cc2c(cc1Br)[C@@]1(C)CCC[C@@](C)(C(=O)O)[C@@H]1C/C2=N\OCCNC(=O)c1cc(Br)cs1`, `Cc1ccc(C(=O)NCCO/N=C2\C[C@H]3[C@](C)(C(=O)O)CCC[C@]3(C)c3cc(Br)c(C(C)C)cc32)s1` is lower in Activity: 106% for the first, 101% for the second.

First: CC(C)c1cc2c(cc1Br)[C@@]1(C)CCC[C@@](C)(C(=O)O)[C@@H]1C/C2=N\OCCNC(=O)c1ccccc1C(F)(F)F
Second: CC(C)c1cc2c(cc1Br)[C@@]1(C)CCC[C@@](C)(C(=O)O)[C@@H]1C/C2=N\OCCNC(=O)c1ccccc1F
The Activity of the first is higher: 123% for the first, 118% for the second.

First: CC(C)c1cc2c(cc1Br)[C@@]1(C)CCC[C@@](C)(C(=O)O)[C@@H]1C/C2=N\OCCNC(=O)c1ccsc1
Second: CC(C)c1cc2c(cc1Br)[C@@]1(C)CCC[C@@](C)(C(=O)O)[C@@H]1C/C2=N\OCCNC(=O)c1nccs1
The Activity of the first is lower: 128% for the first, 204% for the second.

Compared with `CC(C)c1cc2c(cc1Br)[C@@]1(C)CCC[C@@](C)(C(=O)O)[C@@H]1C/C2=N\OCCCCCCNC(=O)c1cccs1`, `CC(C)c1cc2c(cc1Br)[C@@]1(C)CCC[C@@](C)(C(=O)O)[C@@H]1C/C2=N\OCCCCCNC(=O)c1cccs1` is higher in Activity: 97.2% for the first, 104% for the second.

First: CC(C)c1cc2c(cc1Br)[C@@]1(C)CCC[C@@](C)(C(=O)O)[C@@H]1C/C2=N\OCCNC(=O)c1cc2ccccc2s1
Second: CC(C)c1cc2c(cc1Br)[C@@]1(C)CCC[C@@](C)(C(=O)O)[C@@H]1C/C2=N\OCCNC(=O)c1cc2ccccc2[nH]1
The Activity of the first is lower: 85.7% for the first, 89% for the second.

First: CC(C)c1cc2c(cc1Br)[C@@]1(C)CCC[C@@](C)(C(=O)O)[C@@H]1C/C2=N\OCCN
Second: CC(C)c1cc2c(cc1Br)[C@@]1(C)CCC[C@@](C)(C(=O)O)[C@@H]1C/C2=N\OCCNC(=O)c1ccccn1
The Activity of the first is lower: 98.6% for the first, 108% for the second.

Going from `O=c1[nH]c2cc(C(F)(F)F)ccc2n1-c1cc(C(F)(F)F)ccc1O` to `CC(C)c1ccc2c(c1)/C(=N/OCCNC(=O)c1cccs1)C[C@H]1[C@](C)(C(=O)O)CCC[C@]21C`, the Activity falls from 268% to 106%.

First: COc1ccccc1C(=O)NCCO/N=C1\C[C@H]2[C@](C)(C(=O)O)CCC[C@]2(C)c2cc(Br)c(C(C)C)cc21
Second: CC(C)c1cc2c(cc1Br)[C@@]1(C)CCC[C@@](C)(C(=O)O)[C@@H]1C/C2=N\OCCNC(=O)c1c(F)c(F)c(F)c(F)c1F
The Activity of the first is lower: 101% for the first, 136% for the second.
